Assay results taken from US12350475B2 (SUN PHARMACEUTICAL INDUSTRIES LIMITED, priority 2020, dated 2025).
Structures can show the parent of a compound that is named as a salt.

Columns and labels:
[1] = distribution of octreotide in blood (erythrocytes, plasma binding)
Source text: (§1) For patients with acromegaly, there may be a different pharmacokinetic profile.

[2] = pharmacokinetics of octreotide after subcutaneous injection
Source text: as §1

[3] = pharmacokinetics of octreotide after subcutaneous dosing in patients with acromegaly
Source text: as §1

In the case of `C[C@@H](O)[C@@H]1NC(=O)[C@H](CCCCN)NC(=O)[C@@H](Cc2c[nH]c3ccccc23)NC(=O)[C@H](Cc2ccccc2)NC(=O)[C@@H](NC(=O)[C@H](N)Cc2ccccc2)CSSC[C@@H](C(=O)N[C@H](CO)[C@@H](C)O)NC1=O` (relative stereo) [octreotide, L-cysteinamide, D-phenylalanyl-L-cysteinyl-L-phenylalanyl-D-tryptophyl-L-lysyl-L-threonyl-N-[2-hydroxy-1-(hydroxymethyl)propyl]-, cyclic (2#7)-disulfide; [R—(R*, R*)] acetate salt], the “bound in the plasma” value ([1]; concentration-independent manner) is reported as “about 65%”, the “distribution into the erythrocytes” value ([1]; in blood) is reported as “negligible” and the “absorption from the injection site” value ([2]; after subcutaneous injection) is reported as “absorbed completely”. The Vd ([2]; human, plasma, subcutaneous) was roughly 13.6 L, the clearance ([2]; human, plasma, subcutaneous) was 117 to 167 mL/min and the “dose proportionality of peak concentrations and area under the curve values” ([2]; subcutaneous single doses up to 500 μg and multiple doses up to 500 μg three times a day (1,500 μg/day)) was “dose proportional”. For the same compound, the peak concentration ([2]; subcutaneous, dose of 100 μg) was “about 5.2 ng/mL”, the “time to peak concentration after dosing” value ([2]; subcutaneous, dose of 100 μg) was 0.4 h and the Vd ([3]; human, in vivo, subcutaneous) was roughly 21.6 L. For the same compound, the clearance ([3]; human, in vivo, subcutaneous) was roughly 300 mL/min, the “time to mean peak concentration after subcutaneous dosing” value ([3]; patients with acromegaly, 100 μg dose) was “about 0.7 hours” and the mean peak concentration ([3]; patients with acromegaly, subcutaneous, 100 μg dose) was “about 2.8 ng/mL”.
